Assay results taken from US8669292B2, “Therapeutic formulation” (Orion Therapeutics, LLC, priority 2005, dated 2014).
≈ marks a conversion by molar mass, not a printed value. Read-outs that look alike come from different tables or passages of the source.

Assays:
[1] = SORAC (Brunswick Test # A106); type: biochemical; details: for SOD SCORE: Cantron oral liquid scores converted from unitsSODeq/L to unitsSODeq/g
Procedure: Peroxyl radical scores are measured in the ORAC test (Oxygen Radical Absorption Capacity). Hydroxyl Radicals are tested in the HORAC test (Hydroxyl Radical Absorption Capacity). Peroxynitrite Radicals are tested in the NORAC test (Peroxynitrite Radical Absorption Capacity). Superoxide Radicals are measured in the SOD test (Superoxide Radical Absorption Capacity). Applicant's compounds and compositions were tested by the SORAC test (Brunswick test #106), which measures the activity of a given antioxidant against Superoxide radicals. The tests were conducted based on the method of Zhao et al (1999) Journal of Agricultural and Food Chemistry, (1999), 47: 2537-2543. The calibration standard was SOD and was expressed as a unit SOD equivalent per liter (unitsSODeq/L) for liquid formulations and unit SOD equivalent per gram (unitsSODeq/g) for dry powders.

[2] = ORAC lipo (Brunswick Test # A102); type: biochemical; details: for ORAC lipo SCORE: Cantron oral liquid scores converted from TE/L to TE/g
Procedure: (§1) Peroxyl radical scores are measured in the ORAC test (Oxygen Radical Absorption Capacity). Hydroxyl Radicals are tested in the HORAC test (Hydroxyl Radical Absorption Capacity). Peroxynitrite Radicals are tested in the NORAC test (Peroxynitrite Radical Absorption Capacity). Superoxide Radicals are measured in the SOD test (Superoxide Radical Absorption Capacity). The ORAC test measures the antioxidant activity against peroxyl radicals by determining how many peroxyl free radicals can be absorbed by a given antioxidant as compared to the vitamin E analog-Trolox. The result is expressed as micromoles of Trolox equivalent per liter (TE/L) for liquid formulations and Trolox equivalent per gram (TE/g) for dry powders. Brunswick tested the Applicant's compounds for antioxidant activity against both hydrophilic and lipophilic peroxyl radicals as expressed in the ORAC total (see table 7).

[3] = ORAC total (Brunswick Test # A103); type: biochemical; details: for TOTAL ORAC SCORE: Cantron oral liquid scores converted from TE/L to TE/g
Procedure: as §1

[4] = HORAC (Brunswick Test # A104); type: biochemical; details: for HORAC SCORE: Cantron oral liquid scores converted from CAE/L to CAE/g
Procedure: Peroxyl radical scores are measured in the ORAC test (Oxygen Radical Absorption Capacity). Hydroxyl Radicals are tested in the HORAC test (Hydroxyl Radical Absorption Capacity). Peroxynitrite Radicals are tested in the NORAC test (Peroxynitrite Radical Absorption Capacity). Superoxide Radicals are measured in the SOD test (Superoxide Radical Absorption Capacity). […] The result is expressed as micromoles of caffeic acid equivalent per liter (CAE/L) for liquid formulations and caffeic acid equivalent per gram (CAE/g) for dry powders.

[5] = NORAC (Brunswick Test # A105); type: biochemical; details: for NORAC SCORE: Cantron oral liquid scores converted from TE/L to TE/g
Procedure: Peroxyl radical scores are measured in the ORAC test (Oxygen Radical Absorption Capacity). Hydroxyl Radicals are tested in the HORAC test (Hydroxyl Radical Absorption Capacity). Peroxynitrite Radicals are tested in the NORAC test (Peroxynitrite Radical Absorption Capacity). Superoxide Radicals are measured in the SOD test (Superoxide Radical Absorption Capacity). Applicant's compounds and compositions were tested by the NORAC test (Brunswick test # A 105), which measures the activity of a given antioxidant against peroxynitrite radicals. NORAC tests were based on the method of Chung H. et al (2001) Journal Agricultural of Food Chemistry, 49: 3614-3621. Scores are expressed in micromoles of trolox equivalent per liter (TE/L) for liquid formulations and Trolox equivalent per gram (TE/g) for dry powders.

[6] = ORAC hydro (Brunswick Test # A101); type: biochemical; details: for ORAC hydro SCORE: Cantron oral liquid scores converted from TE/L to TE/g
Procedure: as §1

[7] = test system: HCT-116 human colon cancer cells; experiment: IC50 assay (concentration-cell number study); type: cell-based
Procedure: Concentration-cell number studies (IC50 assay) were carried out utilizing 12 separate compositions (numbered 1-12 below) against 13 different cancer cell lines (see Table 6). […] On day 3, cells are exposed to different concentrations of the drug. Flasks are incubated for 120 h (5 d) in a 5% CO2 incubator at 37° C. and the cells harvested with trypsin, washed once with Hanks Balanced Salt Solution (HBSS) and re-suspended in HBSS containing 0.08% Trypan Blue. Both viable and dead cells are counted using a hemocytometer. Viable cell numbers are normalized to an untreated control and plotted as a function of drug concentration. The IC50 value is determined using Prism 4.0.

[8] = test system: 13 different cancer cell lines; experiment: IC50 assays, average or range over all cell lines; type: cell-based
Procedure: (§2) These cells are grown in 5 ml culture medium (RPMI-1640+15% Bovine Calf serum containing 1% penicillin-streptomycin, and 1% Glutamine) at 37° C. and 5% CO2 at a starting concentration of 5×10^4 cells/T25 flask. On day 3, cells are exposed to different concentrations of the drug. Flasks are incubated for 120 h (5 d) in a 5% CO2 incubator at 37° C. and the cells harvested with trypsin, washed once with Hanks Balanced Salt Solution (HBSS) and re-suspended in HBSS containing 0.08% Trypan Blue. Both viable and dead cells are counted using a hemocytometer. Viable cell numbers are normalized to an untreated control and plotted as a function of drug concentration. The IC50 value is determined using Prism 4.0.
(§3) Cell Lines utilized in IC50 Assays: HCT-116 human colon cancer cells, H125 Lung Cancer, MCF-7, Breast Cancer, MDA-235 Breast Cancer, LNCaP Prostate Cancer, OVAR-5 Ovarian Cancer, U251N Brain Cancer Sarcoma 180, Panc 01Pancreatic Cancer, CCRF-CEM Leukemia, HEP-G2 Liver Cancer, L1210 Leukemia, Colon 38 Colon Cancer.

U251N Brain Cancer = experiment: IC50 assay (concentration-cell number study); type: cell-based; details: for IC50: 120 h exposure
Procedure: (§4) Concentration-cell number studies (IC50 assay) were carried out utilizing 12 separate compositions (numbered 1-12 below) against 13 different cancer cell lines (see Table 6). These cells are grown in 5 ml culture medium (RPMI-1640+15% Bovine Calf serum containing 1% penicillin-streptomycin, and 1% Glutamine) at 37° C. and 5% CO2 at a starting concentration of 5×10^4 cells/T25 flask. On day 3, cells are exposed to different concentrations of the drug. Flasks are incubated for 120 h (5 d) in a 5% CO2 incubator at 37° C. and the cells harvested with trypsin, washed once with Hanks Balanced Salt Solution (HBSS) and re-suspended in HBSS containing 0.08% Trypan Blue. Both viable and dead cells are counted using a hemocytometer. Viable cell numbers are normalized to an untreated control and plotted as a function of drug concentration. The IC50 value is determined using Prism 4.0.

CCRF-CEM Leukemia = experiment: IC50 assay (concentration-cell number study); type: cell-based; details: for IC50: 120 h exposure
Procedure: as §4

MCF-7 Breast Cancer = experiment: IC50 assay (concentration-cell number study); type: cell-based
Procedure: as §4

Colon 38 Colon Cancer = experiment: IC50 assay (concentration-cell number study); type: cell-based; details: for IC50: 120 h exposure
Procedure: as §2, §3

HEP-G2 Liver Cancer = experiment: IC50 assay (concentration-cell number study); type: cell-based
Procedure: as §4

MDA-235 Breast Cancer = experiment: IC50 assay (concentration-cell number study); type: cell-based; details: for IC50: 120 h exposure
Procedure: as §4

Sarcoma 180 = experiment: IC50 assay (concentration-cell number study); type: cell-based; details: for IC50: 120 h exposure
Procedure: as §4

LNCaP Prostate Cancer = experiment: IC50 assay (concentration-cell number study); type: cell-based; details: for IC50: 120 h exposure
Procedure: as §4

H125 Lung Cancer = experiment: IC50 assay (concentration-cell number study); type: cell-based
Procedure: as §2, §3

[9] = test system: Panc 01 Pancreatic Cancer; experiment: IC50 assay (concentration-cell number study); type: cell-based; details: for IC50: 120 h exposure
Procedure: as §4

L1210 Leukemia = experiment: IC50 assay (concentration-cell number study); type: cell-based; details: for IC50: 120 h exposure
Procedure: as §4

OVAR-5 Ovarian Cancer = experiment: IC50 assay (concentration-cell number study); type: cell-based; details: for IC50: 120 h exposure
Procedure: as §4

[10] = test system: HCT-116 human colon cancer cells; experiment: Clonogenic dose response; type: cell-based; details: for clonogenic survival / effect on clonogenic survival: 24 h exposure; for clonogenic survival: 10 micrograms/ml; for effect on clonogenic survival: concentrations up to 1 microgram/ml; for effect on the survival of the tumor cells: concentration of up to 10 micrograms/ml, exposure time not given; for concentration with cell survival at the 0.1 level: extended exposure 168 h
Procedure: Clonogenic survival of the cells was measured by a standard tissue culture procedure.
Asimicin was prepared in ethanol. Clonogenic survival of the cells was measured by a standard tissue culture procedure.

[11] = in vivo; cited from earlier work
[12] = Homo sapiens, HCT-116, 120 h, HCT-116, 120 h exposure, read-out: IC50

O=c1c(O)c(O)c(=O)c1=O [Croconic Acid]
SOD SCORE [1]: 0 unitsSODeq/g
ORAC lipo SCORE [2]: 0 micromoles TE/g
TOTAL ORAC SCORE [3]: 1,106 micromoles TE/g
HORAC SCORE [4]: 19 micromoles CAE/g
NORAC SCORE [5]: 1 micromoles TE/g
ORAC hydro SCORE [6]: 1,106 micromoles TE/g

CC(=O)O[C@H]1C(=O)[C@@]2(C)[C@H]([C@H](OC(=O)c3ccccc3)[C@]3(O)C[C@H](OC(=O)[C@H](O)[C@@H](NC(=O)c4ccccc4)c4ccccc4)C(C)=C1C3(C)C)[C@]1(OC(C)=O)CO[C@@H]1C[C@@H]2O [Taxol, reference compound]
IC50 [7, 12]: 0.0002 µg/mL (≈ 0.000234 µM)

Acetogenin [Composition 3]
IC50 AVG. ([8]; average of 13 cell lines): 0.0028 µg/mL
IC50 (U251N Brain Cancer): 0.0012 µg/mL
IC50 (CCRF-CEM Leukemia): 0.0052 µg/mL
IC50 (MCF-7 Breast Cancer; 120 h exposure): 0.0013 µg/mL
IC50 (Colon 38 Colon Cancer): 0.00019 µg/mL
IC50 (HEP-G2 Liver Cancer; 120 h exposure): 0.0022 µg/mL
IC50 ([7]; HCT-116, 120 h exposure): 0.002 µg/mL
IC50 ([7]; HCT-116, 120 h exposure, listed as 3): 0.002 µg/mL
IC50 (MDA-235 Breast Cancer): 0.0013 µg/mL
IC50 (Sarcoma 180): 0.0012 µg/mL
IC50 (LNCaP Prostate Cancer): 0.005 µg/mL
IC50 (H125 Lung Cancer; 120 h exposure): 0.0014 µg/mL
IC50 [9]: 0.00041 µg/mL
IC50 (L1210 Leukemia): 0.013 µg/mL
IC50 (OVAR-5 Ovarian Cancer): 0.0018 µg/mL

Asimicin
clonogenic survival [10]: 0.1
effect on clonogenic survival [10]: no effect
fold greater cell killing than found with the 24 h exposure ([10]; 168 h versus 24 h exposure): ~100.000 fold
effect on the survival of the tumor cells [10]: no effect
concentration with cell survival at the 0.1 level [10]: 200 picograms/ml

O=C(O)CCCCC1CCSS1 (stereo not drawn) [Alpha-lipoic acid, reference compound]
IC50 [7, 12]: > 100 µg/mL

Oc1ccccc1O [Composition 2, Catechol]
SOD SCORE [1]: 159,000 unitsSODeq/g
more effective than the improved Cantron ASV ([1]; Superoxide score ratio): is still 441.66% more effective
IC50 ([8]; average of 13 cell lines): 2.3 µg/mL (≈ 20.9 µM)
times more efficacious than Cantron ([8]; average over the cell lines tested): 10.35 times
IC50 times lower than Cantron (times more efficacious than Cantron) (U251N Brain Cancer): 10.45 times lower than
IC50 (U251N Brain Cancer; read-out: IC50): 2.2 µg/mL (≈ 20 µM)
IC50 times lower than Cantron (times more efficacious than Cantron) (CCRF-CEM Leukemia): 6.19 times lower than
IC50 (CCRF-CEM Leukemia; Homo sapiens, read-out: IC50): 2.1 µg/mL (≈ 19.1 µM)
IC50 times lower than Cantron (times more efficacious than Cantron) (MCF-7 Breast Cancer): 11.36 times lower than
IC50 (MCF-7 Breast Cancer; 120 h exposure): to 2.2 μg/ml). It is
IC50 (MCF-7 Breast Cancer; Homo sapiens, MCF7, 120 h exposure, read-out: IC50): 2.2 µg/mL (≈ 20 µM)
clonogenic survival [10]: 0.1
effect on clonogenic survival [10]: no effect
effect on the survival of the tumor cells [10]: no effect
concentration with cell survival at the 0.1 level [10]: 200 picograms/ml
IC50 times lower than Cantron (times more efficacious than Cantron) (Colon 38 Colon Cancer): 11.36 times lower than
IC50 (Colon 38 Colon Cancer; read-out: IC50): 2.2 µg/mL (≈ 20 µM)
ORAC lipo SCORE [2]: 24,682 micromoles TE/g
more effective than the improved Cantron ASV ([2]; Peroxyl-lipo score ratio): is still 4086.4% more effective
IC50 times lower than Cantron (times more efficacious than Cantron) (HEP-G2 Liver Cancer): 4.61 times lower than
IC50 (HEP-G2 Liver Cancer; Homo sapiens, HepG2, 120 h exposure, read-out: IC50): 2.6 µg/mL (≈ 23.6 µM)
TOTAL ORAC SCORE [3]: 73,161 micromoles TE/g
more effective than Cantron NM ([3]; Peroxyl-total score ratio): The Catechol composition is 1702%
IC50 times lower than Cantron (times more efficacious than Cantron) ([7]; HCT-116): 7.04 times lower than
calculated cytotoxicity value of catechol ([7]; HCT-116, Cantron score 19.7 multiplied by 12.7% catechol by weight): 2.5019 µg/mL
IC50 [7, 12]: 2.8 µg/mL (≈ 25.4 µM)
IC50 ([7]; Homo sapiens, HCT-116, read-out: calculated cytotoxicity value of catechol, HCT-116, Cantron score 19.7 multiplied by 12.7% catechol by weight): 2.5 µg/mL (≈ 22.7 µM)
IC50 times lower than Cantron (times more efficacious than Cantron) (MDA-235 Breast Cancer): 9.33 times lower than
IC50 (MDA-235 Breast Cancer; read-out: IC50): 3 µg/mL (≈ 27.2 µM)
HORAC SCORE [4]: 5,572 micromoles CAE/g
more effective than Cantron NM ([4]; Hydroxyl score ratio): 2,079% more effective than
NORAC SCORE [5]: 2,593 micromoles TE/g
more effective than the improved Cantron ASV ([5]; Peroxynitrite score ratio): is still 409.63% more effective
IC50 times lower than Cantron (times more efficacious than Cantron) (Sarcoma 180): 12.11 times lower than
IC50 (Sarcoma 180; Mus musculus, read-out: IC50): 1.9 µg/mL (≈ 17.3 µM)
IC50 times lower than Cantron (times more efficacious than Cantron) (LNCaP Prostate Cancer): 18.82 times lower than
IC50 (LNCaP Prostate Cancer; Homo sapiens, read-out: IC50): 1.7 µg/mL (≈ 15.4 µM)
IC50 times lower than Cantron (times more efficacious than Cantron) (H125 Lung Cancer): 14.29 times lower than
IC50 (H125 Lung Cancer; Homo sapiens, NCI-H125, 120 h exposure, read-out: IC50): 2.1 µg/mL (≈ 19.1 µM)
IC50 times lower than Cantron (times more efficacious than Cantron) [9]: 14.71 times lower than
IC50 ([9]; read-out: IC50): 1.7 µg/mL (≈ 15.4 µM)
IC50 times lower than Cantron (times more efficacious than Cantron) (L1210 Leukemia): 10.52 times lower than
IC50 (L1210 Leukemia; Mus musculus, read-out: IC50): 1.9 µg/mL (≈ 17.3 µM)
ORAC hydro SCORE [6]: 48,479 micromoles TE/g
more effective than the improved Cantron ASV ([6]; Peroxyl-hydro score ratio): is still 507% more effective than
IC50 times lower than Cantron (times more efficacious than Cantron) (OVAR-5 Ovarian Cancer): 3.69 times lower than
IC50 (OVAR-5 Ovarian Cancer; read-out: IC50): 3.2 µg/mL (≈ 29.1 µM)
known side effects in animal tests [11]: stomach irritation and hyperplasia
